Each structure is given as a SMILES string. Converted amounts (≈) assume the structure as drawn.

Assay [1] relates to Mycolicibacterium smegmatis. The assay can be described thus: Antitubercular activity against Mycobacterium smegmatis mc2155 ATCC 700084 cultured in GAST media incubated for 24 hrs by resazurin microtiter assay. The class given is functional. A general note: The colour change of resazurin is a common sign of viable cells or microbes.
Assay [2] relates to Mycolicibacterium smegmatis. The assay can be described thus: Antitubercular activity against Mycobacterium smegmatis mc2155 ATCC 700084 cultured in GAST-Fe media incubated for 24 hrs by resazurin microtiter assay. The class given is functional.
In assay [3] the test system is Mycolicibacterium aurum. The assay can be described thus: Antimycobacterial activity against Mycobacterium aurum ATCC 10437 cultured in GAST media incubated for 72 hrs by resazurin microtiter assay. The class given is functional.
Assay [4] concerns Mycolicibacterium aurum. The assay is described as follows: Antimycobacterial activity against Mycobacterium aurum ATCC 10437 cultured in GAST-Fe media incubated for 72 hrs by resazurin microtiter assay. Format: functional.
Assay [5] concerns Mycobacterium tuberculosis. The assay is described as follows: microbe, parasite or virus in culture. Conditions: H37Rv ATCC 27294, 192 h.
Assay [6] concerns Mycobacterium tuberculosis. The assay is described as follows: microbe, parasite or virus in culture. The settings on record: H37Rv ATCC 27294, 192 h. This is another data set of the same source.

Regarding `NC(=S)N1N=C(c2ccccc2O)CC1c1ccccc1` (configuration not stated), the MIC90 in assay [1] was 128 µg/mL (≈ 430 µM); in assay [2] it was 256 µg/mL (≈ 861 µM); in the assay with Mycolicibacterium aurum [3], 64 µg/mL (≈ 215 µM); in the assay on Mycolicibacterium aurum [4], 64 µg/mL (≈ 215 µM); in assay [5], 4 µg/mL (≈ 13.5 µM); in assay [6], 128 µg/mL (≈ 430 µM).
Regarding `NC(=S)N1N=C(c2ccccc2O)CC1c1ccc(O)cc1` (configuration not stated), the MIC90 in assay [1] was 256 µg/mL (≈ 817 µM); in assay [2], above 256 µg/mL; in the assay on Mycolicibacterium aurum [3], 64 µg/mL (≈ 204 µM); against Mycolicibacterium aurum [4] it was 128 µg/mL (≈ 408 µM); in assay [5], 64 µg/mL (≈ 204 µM); in assay [6], 256 µg/mL (≈ 817 µM).

The record behind these values is ChEMBL document CHEMBL5046254, “Mycobactin Analogues with Excellent Pharmacokinetic Profile Demonstrate Potent Antitubercular Specific Activity and Exceptional Efflux Pump Inhibition” (J Med Chem, 2022).
